Test results taken from patent US11498899B2, “Nitrone herbicides” (FMC Corporation, priority 2016, dated 2022).

Columns and labels:
[1] = tested on: barnyardgrass (Echinochloa crus-galli); assay: Test A preemergence, visual injury rating 0-100 (0 no effect, 100 complete control); format: in vivo; settings: for Barnyardgrass plant response rating (0 to 100 scale): 125 g ai/ha; for Barnyardgrass plant response rating: 500 g ai/ha, 0 to 100 scale
rice (Oryza sativa) = assay: Test B flooded paddy test, visual rating 0-100 (0 no effect, 100 complete control); settings: Flood, 250 g ai/ha, applied to paddy water, rated after 13 to 15 days
[2] = tested on: wheat (Triticum aestivum); assay: Test A postemergence, visual injury rating 0-100; format: in vivo; settings: 0 to 100 scale
[3] = tested on: pigweed (Amaranthus retroflexus); assay: Test A postemergence, visual injury rating 0-100; format: in vivo; settings: 0 to 100 scale
kochia (Kochia scoparia) [4] = assay: Test A postemergence, visual injury rating 0-100; format: in vivo; settings: 0 to 100 scale
corn (Zea mays) = assay: Test A postemergence, visual injury rating 0-100; format: in vivo; settings: 0 to 100 scale
[5] = tested on: blackgrass (Alopecurus myosuroides); assay: Test A postemergence, visual injury rating 0-100; format: in vivo; settings: 0 to 100 scale
[6] = tested on: ragweed (common ragweed, Ambrosia elatior); assay: Test A postemergence, visual injury rating 0-100; format: in vivo; settings: 0 to 100 scale
[7] = tested on: foxtail, green (green foxtail, Setaria viridis); assay: Test A postemergence, visual injury rating 0-100; format: in vivo; settings: 0 to 100 scale
[8] = tested on: barnyardgrass (Echinochloa crus-galli); assay: Test A postemergence, visual injury rating 0-100; format: in vivo; settings: 0 to 100 scale
[9] = tested on: ryegrass, Italian (Italian ryegrass, Lolium multiflorum); assay: Test A postemergence, visual injury rating 0-100; format: in vivo; settings: 0 to 100 scale
[10] = tested on: barnyardgrass (Echinochloa crus-galli); assay: Test B flooded paddy test, visual rating 0-100; settings: Flood, 250 g ai/ha, applied to paddy water, rated after 13 to 15 days
[11] = tested on: ducksalad (Heteranthera limosa); assay: Test B flooded paddy test, visual rating 0-100; settings: Flood, 250 g ai/ha, applied to paddy water, rated after 13 to 15 days
[12] = tested on: pigweed (Amaranthus retroflexus); assay: Test A preemergence, visual injury rating 0-100; format: in vivo
kochia (Kochia scoparia) [13] = assay: Test A preemergence, visual injury rating 0-100; format: in vivo
[14] = tested on: ragweed (common ragweed, Ambrosia elatior); assay: Test A preemergence, visual injury rating 0-100; format: in vivo
[15] = tested on: foxtail, green (green foxtail, Setaria viridis); assay: Test A preemergence, visual injury rating 0-100; format: in vivo
[16] = tested on: ryegrass, Italian (Italian ryegrass, Lolium multiflorum); assay: Test A preemergence, visual injury rating 0-100; format: in vivo

Row | SMILES | Barnyardgrass plant response rating (0 to 100 scale) [1] | Barnyardgrass plant response rating [1] | Rice plant response rating (0 to 100 scale) (rice (Oryza sativa)) | Wheat plant response rating ([2]; 125 g ai/ha) | Wheat plant response rating ([2]; 500 g ai/ha) | Pigweed plant response rating ([3]; 125 g ai/ha) | Pigweed plant response rating ([3]; 500 g ai/ha) | Kochia plant response rating (kochia (Kochia scoparia) [4]; 125 g ai/ha) | Kochia plant response rating (kochia (Kochia scoparia) [4]; 500 g ai/ha) | Corn plant response rating (corn (Zea mays); 125 g ai/ha) | Corn plant response rating (corn (Zea mays); 500 g ai/ha) | Blackgrass plant response rating ([5]; 125 g ai/ha) | Blackgrass plant response rating ([5]; 500 g ai/ha) | Ragweed plant response rating ([6]; 125 g ai/ha) | Ragweed plant response rating ([6]; 500 g ai/ha) | Foxtail, Green plant response rating ([7]; 125 g ai/ha) | Foxtail, Green plant response rating ([7]; 500 g ai/ha) | Barnyardgrass plant response rating ([8]; 125 g ai/ha) | Barnyardgrass plant response rating ([8]; 500 g ai/ha) | Ryegrass, Italian plant response rating ([9]; 500 g ai/ha) | further results
1 | CC1=[N+]([O-])C(C(=O)Nc2cccc(F)c2C#N)C(c2ccc(C(F)(F)F)cc2)C1 (racemic) [Compound 34] | 80 | 100 | 0 | 0 | 50 | 30 | 70 | 0 | 30 | 0 | 0 | 40 | 80 | 0 | 50 | 0 | 80 | 30 | 70 | 30 | Ryegrass, Italian plant response rating ([9]; 125 g ai/ha): 0; Barnyardgrass plant response rating (0 to 100 scale) [10]: 35; Ducksalad plant response rating (0 to 100 scale) [11]: 50; Pigweed plant response rating (0 to 100 scale) ([12]; 125 g ai/ha): 0; Pigweed plant response rating (0 to 100 scale) ([12]; 500 g ai/ha): 90; Kochia plant response rating (0 to 100 scale) (kochia (Kochia scoparia) [13]; 125 g ai/ha): 0; Kochia plant response rating (0 to 100 scale) (kochia (Kochia scoparia) [13]; 500 g ai/ha): 90; Ragweed plant response rating (0 to 100 scale) ([14]; 125 g ai/ha): 50; Ragweed plant response rating (0 to 100 scale) ([14]; 500 g ai/ha): 100; Foxtail, Green plant response rating (0 to 100 scale) ([15]; 125 g ai/ha): 40; Foxtail, Green plant response rating (0 to 100 scale) ([15]; 500 g ai/ha): 100; Ryegrass, Italian plant response rating (0 to 100 scale) ([16]; 125 g ai/ha): 0; Ryegrass, Italian plant response rating (0 to 100 scale) ([16]; 500 g ai/ha): 0
2 | O=C(Nc1cccc(F)c1F)C1C(c2ccccc2)CC(C(F)(F)F)=[N+]1[O-] (racemic) [Compound 35] | 0 | 0 | 0 | 0 | 0 | 0 | 0 | 0 | 0 | 0 | 0 | 0 | 0 | 0 | 0 | 0 | 0 | 0 | 0 | 0 | Ryegrass, Italian plant response rating ([9]; 125 g ai/ha): 0; Barnyardgrass plant response rating (0 to 100 scale) [10]: 0; Ducksalad plant response rating (0 to 100 scale) [11]: 0; Pigweed plant response rating (0 to 100 scale) ([12]; 125 g ai/ha): 0; Pigweed plant response rating (0 to 100 scale) ([12]; 500 g ai/ha): 0; Kochia plant response rating (0 to 100 scale) (kochia (Kochia scoparia) [13]; 125 g ai/ha): 0; Kochia plant response rating (0 to 100 scale) (kochia (Kochia scoparia) [13]; 500 g ai/ha): 0; Ragweed plant response rating (0 to 100 scale) ([14]; 125 g ai/ha): 0; Ragweed plant response rating (0 to 100 scale) ([14]; 500 g ai/ha): 0; Foxtail, Green plant response rating (0 to 100 scale) ([15]; 125 g ai/ha): 0; Foxtail, Green plant response rating (0 to 100 scale) ([15]; 500 g ai/ha): 0; Ryegrass, Italian plant response rating (0 to 100 scale) ([16]; 125 g ai/ha): 0; Ryegrass, Italian plant response rating (0 to 100 scale) ([16]; 500 g ai/ha): 0
3 | CC1=[N+]([O-])C(C(=O)Nc2ccncc2C(F)(F)F)C(c2ccc(C(F)(F)F)cc2)C1 (racemic) [Compound 36] | 70 | 60 | 0 | 0 | 0 | 0 | 0 | 0 | 0 | 20 | 0 | 20 | 20 | 0 | 0 | 0 | 20 | 0 | 0 | 20 | Barnyardgrass plant response rating (0 to 100 scale) [10]: 30; Ducksalad plant response rating (0 to 100 scale) [11]: 0; Pigweed plant response rating (0 to 100 scale) ([12]; 125 g ai/ha): 0; Pigweed plant response rating (0 to 100 scale) ([12]; 500 g ai/ha): 60; Kochia plant response rating (0 to 100 scale) (kochia (Kochia scoparia) [13]; 125 g ai/ha): 0; Kochia plant response rating (0 to 100 scale) (kochia (Kochia scoparia) [13]; 500 g ai/ha): 90; Ragweed plant response rating (0 to 100 scale) ([14]; 125 g ai/ha): 0; Ragweed plant response rating (0 to 100 scale) ([14]; 500 g ai/ha): 80; Foxtail, Green plant response rating (0 to 100 scale) ([15]; 125 g ai/ha): 0; Foxtail, Green plant response rating (0 to 100 scale) ([15]; 500 g ai/ha): 100; Ryegrass, Italian plant response rating (0 to 100 scale) ([16]; 125 g ai/ha): 10; Ryegrass, Italian plant response rating (0 to 100 scale) ([16]; 500 g ai/ha): 60
4 | CC1=[N+]([O-])C(C(=O)Nc2ccc(F)c(F)c2F)C(c2ccc(C(F)(F)F)cc2)C1 (racemic) [Compound 38] | 90 | 100 | 0 | 30 | 60 | 0 | 30 | 0 | 0 | 20 | 70 | 40 | 70 | 0 | 20 | 70 | 90 | 90 | 60 | 20 | Ryegrass, Italian plant response rating ([9]; 125 g ai/ha): 30; Barnyardgrass plant response rating (0 to 100 scale) [10]: 60; Ducksalad plant response rating (0 to 100 scale) [11]: 65; Pigweed plant response rating (0 to 100 scale) ([12]; 125 g ai/ha): 30; Pigweed plant response rating (0 to 100 scale) ([12]; 500 g ai/ha): 80; Kochia plant response rating (0 to 100 scale) (kochia (Kochia scoparia) [13]; 125 g ai/ha): 0; Kochia plant response rating (0 to 100 scale) (kochia (Kochia scoparia) [13]; 500 g ai/ha): 90; Ragweed plant response rating (0 to 100 scale) ([14]; 125 g ai/ha): 30; Ragweed plant response rating (0 to 100 scale) ([14]; 500 g ai/ha): 90; Foxtail, Green plant response rating (0 to 100 scale) ([15]; 125 g ai/ha): 100; Foxtail, Green plant response rating (0 to 100 scale) ([15]; 500 g ai/ha): 100; Ryegrass, Italian plant response rating (0 to 100 scale) ([16]; 125 g ai/ha): 30; Ryegrass, Italian plant response rating (0 to 100 scale) ([16]; 500 g ai/ha): 50
5 | CC1=[N+]([O-])C(C(=O)Nc2ccccc2S(C)(=O)=O)C(c2ccc(C(F)(F)F)cc2)C1 (racemic) [Compound 43] | 20 | 100 | 0 | 0 | 0 | 0 | 0 | 0 | 0 | 0 | 0 | 0 | 30 | 0 | 0 | 20 | 60 | 20 | 60 | 20 | Ryegrass, Italian plant response rating ([9]; 125 g ai/ha): 0; Barnyardgrass plant response rating (0 to 100 scale) [10]: 0; Ducksalad plant response rating (0 to 100 scale) [11]: 0; Pigweed plant response rating (0 to 100 scale) ([12]; 125 g ai/ha): 40; Pigweed plant response rating (0 to 100 scale) ([12]; 500 g ai/ha): 90; Kochia plant response rating (0 to 100 scale) (kochia (Kochia scoparia) [13]; 125 g ai/ha): 0; Kochia plant response rating (0 to 100 scale) (kochia (Kochia scoparia) [13]; 500 g ai/ha): 80; Ragweed plant response rating (0 to 100 scale) ([14]; 125 g ai/ha): 0; Ragweed plant response rating (0 to 100 scale) ([14]; 500 g ai/ha): 100; Foxtail, Green plant response rating (0 to 100 scale) ([15]; 125 g ai/ha): 80; Foxtail, Green plant response rating (0 to 100 scale) ([15]; 500 g ai/ha): 100; Ryegrass, Italian plant response rating (0 to 100 scale) ([16]; 125 g ai/ha): 0; Ryegrass, Italian plant response rating (0 to 100 scale) ([16]; 500 g ai/ha): 0
6 | CC1=[N+]([O-])C(C(=O)Nc2ccccc2[S+](C)[O-])C(c2ccc(C(F)(F)F)cc2)C1 (racemic) [Compound 44] | 0 | 70 | 0 | 0 | 0 | 0 | 20 | 0 | 10 | 0 | 0 | 0 | 20 | 0 | 0 | 0 | 30 | 0 | 0 | 0 | Ryegrass, Italian plant response rating ([9]; 125 g ai/ha): 0; Barnyardgrass plant response rating (0 to 100 scale) [10]: 0; Ducksalad plant response rating (0 to 100 scale) [11]: 0; Pigweed plant response rating (0 to 100 scale) ([12]; 125 g ai/ha): 20; Pigweed plant response rating (0 to 100 scale) ([12]; 500 g ai/ha): 90; Kochia plant response rating (0 to 100 scale) (kochia (Kochia scoparia) [13]; 125 g ai/ha): 0; Kochia plant response rating (0 to 100 scale) (kochia (Kochia scoparia) [13]; 500 g ai/ha): 0; Ragweed plant response rating (0 to 100 scale) ([14]; 125 g ai/ha): 0; Ragweed plant response rating (0 to 100 scale) ([14]; 500 g ai/ha): 80; Foxtail, Green plant response rating (0 to 100 scale) ([15]; 125 g ai/ha): 0; Foxtail, Green plant response rating (0 to 100 scale) ([15]; 500 g ai/ha): 100; Ryegrass, Italian plant response rating (0 to 100 scale) ([16]; 125 g ai/ha): 0; Ryegrass, Italian plant response rating (0 to 100 scale) ([16]; 500 g ai/ha): 0
